We go through six compounds from article PMC7801736 (ACS infectious diseases, 2019).

Experiment [1] deals with M. tuberculosis strain H37Rv. Format: cell-based, Mycobacterium tuberculosis. The conditions noted are these: H37Rv background.
For experiment [2], the system named is M. tuberculosis inhA overexpression strain mc^24914. The experiment is described as follows: microbe, parasite or virus in culture. The conditions noted are these: for MIC: Mycobacterium tuberculosis. Format: cell-based, Mycobacterium tuberculosis.
Experiment [3] deals with M. tuberculosis strain H37Rv. The conditions noted are these: cited from earlier work.
Setting [4] is: read-out: MIC (µM) mc^24914, Table 1, commercial material, […].
Setting [5] is: read-out: MIC (µM) mc^24914, Table 2, synthetic material.

≈ marks a conversion by molar mass, not a printed value. Like-named read-outs stand apart in the source and are kept apart here.

On to `COc1cccc(Nc2ccc([N+](=O)[O-])c3nonc23)c1` [JSF-2164, N-(3-methoxyphenyl)-7-nitrobenzo[c][1,2,5]oxadiazol-4-amine], for which the “mutation rate (spontaneous resistance)” value in experiment [1] is listed as ~10^−5. In addition, the MIC was 30 µM (≈ 8.59 µg/mL) in experiment [2] (setting [4]) and 25 µM (≈ 7.16 µg/mL) in experiment [2] (setting [5]). In experiment [2] (mc^24914 vs H37Rv), the “MIC shift versus the inhA overexpression strain as compared to H37Rv” value was 3 fold.
Turning to `COc1cccc(Nc2ccc(N)c3nonc23)c1` [JSF-3616, N4-(3-methoxyphenyl)-benzo[c][1,2,5]oxadiazole-4,7-diamine], the MIC in experiment [2] (setting [5]) stood at 32 µM (≈ 8.2 µg/mL).
`COc1cccc(Nc2ccc3nonc3c2N)c1` [JSF-3617, N5-(3-methoxyphenyl)benzo[c][1,2,5]oxadiazole-4,5-diamine]: the MIC in experiment [2] (setting [5]) came out at 125 µM (≈ 32 µg/mL).
Consider `NNC(=O)c1ccncc1` [isoniazid, reference compound], for which the MIC in experiment [2] (setting [4]) and in experiment [2] (setting [5]) was 2.5 µM (≈ 0.343 µg/mL) throughout.
For `O=[N+]([O-])c1cn2c(n1)OC[C@@H](OCc1ccc(OC(F)(F)F)cc1)C2` [pretomanid], the frequency of resistance in experiment [3] is 10^−5 to 10^−6.
Consider `Oc1cc(Cl)ccc1Oc1ccc(Cl)cc1Cl` [triclosan, reference compound], for which, in experiment [2] (setting [4]), the MIC was 120 µM (≈ 34.7 µg/mL).
